Measurements published in patent US20250295652A1, “Inhibitors of Molluscum Contagiosum Infection and Methods Using the Same” (priority 2021, published 2025).
Read-outs that look alike come from different tables or passages of the source.

Columns and labels:
[1] = system: HSV-1; type: cell-based; conditions: Vero cells
[2] = system: mD4-VV surrogate virus; test: microbe, parasite or virus in culture; type: cell-based, mD4/vaccinia hybrid virus; conditions: Hybrid virus, BSC-1, read-out: mD4 EC50
[3] = biological target: T1, E9/A20/D4 proteins (vaccinia virus vD4) (Vaccinia virus, UniProt P04303, Y163F); type: biochemical
T1 construct: made in house; host or cells: TNT reticulocyte lysate (in vitro translation)

[4] = system: human estrogen receptor beta (ERβ-N), MBP fusion; test: DARTS, unrelated control protein ERβ-N; type: binding; conditions: crude cell lysates
[5] = biological target: E9/A20/D4 proteins (molluscum mD4) (Molluscum contagiosum virus, UniProt Q98260); test: biochemical
Chain of E9/A20/D4 proteins (molluscum mD4) (Q98260 1-226): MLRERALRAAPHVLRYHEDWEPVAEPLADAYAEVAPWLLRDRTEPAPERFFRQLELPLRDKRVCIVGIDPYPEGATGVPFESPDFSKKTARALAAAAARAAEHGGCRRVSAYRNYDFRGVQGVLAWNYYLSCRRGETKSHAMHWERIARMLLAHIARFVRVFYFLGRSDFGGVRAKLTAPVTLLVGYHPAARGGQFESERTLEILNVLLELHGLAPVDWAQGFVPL

[6] = biological target: T2, D4 (Vaccinia virus, UniProt P04303, Y163F); type: binding; conditions: for thermal shift (in words): up to 50 μM
[7] = system: duplex or single-stranded DNA; test: Isothermal titration calorimetry (ITC) DNA binding; conditions: 40 μM compound, 25° C.
Description: Fish sperm DNA (USB Scientific, USA) was dissolved in water and fragmented by sonication in order to generate a random DNA mix. The fragmented DNA was then dialyzed into column buffer absence of glycerol. The 15-mer oligomer comprised of poly d(TC) (Integrated DNA Technologies, USA) was directly prepared in the same buffer without the dialysis step. DNA and compounds were prepared in the same dialysis buffer with added 2.5 mM DTT, 1% DMSO, and 0.005% Tween-20. DNA binding was then assessed by isothermal titration calorimetry (ITC) on a MicroCal iTC200 microcalorimeter (Malvern Instruments, United Kingdom) by titrating 3 μL/injection of 1.2 mg/mL of random DNA (with unknown molar concentration) or 5.3 mg/L of single-stranded DNA into the sample consisting of 40 μM of compound. Experiments were performed at 25° C. with 800 rpm stirring and 3-min spacing in order to allow equilibration. Ethidium bromide (Sigma-Aldrich, USA) was freshly prepared in water. Since the molar concentrations of the DNA ligands were undefined, only raw heat values are depicted.

[8] = biological target: T3, MBP (Escherichia coli, UniProt P0AEX9); test: DARTS, unrelated control protein MBP; type: binding; conditions: crude cell lysates
T3 construct: made in house; host or cells: bacterial cells, crude lysate

[9] = biological target: T2, D4; type: binding; parameters: made in house; host or cells: bacterial cells (IPTG induction); purified for SPR, crude lysate for DARTS
[10] = system: VV; test: microbe, parasite or virus in culture; type: cell-based, vaccinia virus; conditions: Orthopoxvirus vaccinia, BSC-1, read-out: VV EC50
[11] = biological target: UL30 (DNA polymerase) and UL42 (processivity factor) (Human herpesvirus 1, UniProt P04293+P10226); type: biochemical, HSV-1
Chain of UL30 (DNA polymerase) and UL42 (processivity factor) (P10226 whole entry): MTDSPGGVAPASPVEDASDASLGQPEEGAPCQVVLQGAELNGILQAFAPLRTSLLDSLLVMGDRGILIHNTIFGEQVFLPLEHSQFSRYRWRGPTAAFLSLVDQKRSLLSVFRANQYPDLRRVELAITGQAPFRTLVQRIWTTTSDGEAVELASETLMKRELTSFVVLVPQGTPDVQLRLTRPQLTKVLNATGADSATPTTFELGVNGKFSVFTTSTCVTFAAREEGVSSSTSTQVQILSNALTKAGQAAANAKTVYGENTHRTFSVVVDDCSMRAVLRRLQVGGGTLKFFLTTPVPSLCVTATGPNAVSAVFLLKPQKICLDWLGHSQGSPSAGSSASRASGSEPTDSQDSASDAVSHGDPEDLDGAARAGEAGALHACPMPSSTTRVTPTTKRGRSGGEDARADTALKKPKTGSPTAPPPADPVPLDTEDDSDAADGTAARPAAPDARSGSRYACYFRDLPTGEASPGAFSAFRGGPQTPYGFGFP
Chain of UL30 (DNA polymerase) and UL42 (processivity factor) (P04293 whole entry): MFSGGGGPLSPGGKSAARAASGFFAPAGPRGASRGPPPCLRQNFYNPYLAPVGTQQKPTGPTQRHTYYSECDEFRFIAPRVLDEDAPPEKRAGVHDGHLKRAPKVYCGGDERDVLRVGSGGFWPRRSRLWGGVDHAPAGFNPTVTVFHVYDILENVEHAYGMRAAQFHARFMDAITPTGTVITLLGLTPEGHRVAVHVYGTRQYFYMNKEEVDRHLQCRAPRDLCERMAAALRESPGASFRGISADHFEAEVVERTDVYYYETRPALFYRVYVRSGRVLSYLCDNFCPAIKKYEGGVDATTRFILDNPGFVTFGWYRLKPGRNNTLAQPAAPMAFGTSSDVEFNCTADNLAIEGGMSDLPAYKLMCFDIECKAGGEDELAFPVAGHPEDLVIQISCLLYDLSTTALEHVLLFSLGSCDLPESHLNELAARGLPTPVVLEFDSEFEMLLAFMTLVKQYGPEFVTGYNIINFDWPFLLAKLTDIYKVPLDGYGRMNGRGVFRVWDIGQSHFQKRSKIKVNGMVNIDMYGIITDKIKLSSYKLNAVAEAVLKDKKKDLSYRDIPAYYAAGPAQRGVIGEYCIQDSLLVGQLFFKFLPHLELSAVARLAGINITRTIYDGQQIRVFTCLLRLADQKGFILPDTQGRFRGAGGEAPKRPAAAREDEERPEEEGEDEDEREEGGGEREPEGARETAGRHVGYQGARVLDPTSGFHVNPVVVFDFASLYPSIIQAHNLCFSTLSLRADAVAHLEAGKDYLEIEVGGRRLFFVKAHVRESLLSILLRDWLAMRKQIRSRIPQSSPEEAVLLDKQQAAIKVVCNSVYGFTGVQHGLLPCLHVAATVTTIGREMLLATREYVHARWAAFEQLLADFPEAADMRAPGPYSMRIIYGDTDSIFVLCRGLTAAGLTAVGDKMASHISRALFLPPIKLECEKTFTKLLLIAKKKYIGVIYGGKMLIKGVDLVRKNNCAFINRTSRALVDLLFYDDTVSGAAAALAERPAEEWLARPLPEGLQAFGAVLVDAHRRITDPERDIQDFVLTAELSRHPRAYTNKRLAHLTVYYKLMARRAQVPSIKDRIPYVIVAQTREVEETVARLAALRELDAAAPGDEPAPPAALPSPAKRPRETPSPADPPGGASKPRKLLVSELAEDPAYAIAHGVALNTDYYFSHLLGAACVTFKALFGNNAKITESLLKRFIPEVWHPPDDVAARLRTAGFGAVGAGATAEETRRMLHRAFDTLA

[12] = Irritancy on human cadaver skin; conditions: gel formulated 99
Description: Briefly, gel was applied to shaved skin areas, covered for 24 hours and irritancy was measured daily for 3 days after uncovering using the Draize scoring system.

[13] = Solubility in receptor medium; conditions: 1×PBS/4% BSA receptor medium, typical IVPT study
Text: For this study, human torso skin was used rather than a membrane. Initially, methods development was done to identify the receiving medium in the reservoir of the Franz cell apparatus which provided the greatest compound solubility so that percentages of full penetration would not be underestimated due to poor solubility.

[14] = in vitro; conditions: African green monkey
[15] = biological target: T2, D4; type: binding; parameters: made in house; host or cells: bacterial cells (IPTG induction); purified for SPR, crude lysate for DARTS; remark: listed apart in the source

Structure (SMILES)	EC50 [2] [µM]	IC50 [5] [µM]	also measured
CCC(C(=O)Nc1sc(C(N)=O)c(C)c1C(=O)OC)c1ccccc1 (centres unmarked) [Compound 1, methyl 5-carbamoyl-4-methyl-2-(2-phenylbutanamido)thiophene-3-carboxylate]	22.9	16.3	antiviral activity against HSV-1 infection (in words) [1]: lack of antiviral activity; inhibition of VACV DNA synthesis compared with mD4 reaction (in words) [3]: Nearly identical inhibition; effect on ERβ-N protein levels after proteolysis (in words) [4]: inability; ΔTm ([6]; 25 µM): −0.86; ΔTm ([6]; 50 µM): −1.55; DNA binding heat traces (in words) [7]: no appreciable total heats; effect on MBP protein levels after proteolysis (in words) [8]: inability; effect on D4 protein levels after Pronase proteolysis (in words) [9]: increase in D4 protein levels; EC50 [10]: 15.1 µM; inhibition of DNA synthesis using HSV-1 proteins (in words) [11]: no inhibition
CCC(C(=O)Nc1sc(C(N)=O)c(C)c1C(=O)OC)c1ccc(F)cc1 (centres unmarked) [Compound 99, 5-Carbamoyl-2-[2-(4-fluoro-phenyl)-butyrylamino]-4-methyl-thiophene-3-carboxylic acid methyl ester]	8.8	8.9	irritancy score [12]: non-irritant; EC50 [10]: 9 µM; solubility sufficient to detect % of the applied amount [13]: up to 143%
CCC(C(=O)Nc1sc(C(=O)O)c(C)c1C(=O)OC)c1ccc(C(F)(F)F)cc1 (centres unmarked) [Compound 199, 4-(methoxycarbonyl)-5-(2-(4-(trifluoromethyl)phenyl)butanamido)-3-methylthiophene-2-carboxylic acid]	17.9	–	CC50 [14]: > 100 µM
Nc1ccn(C[C@@H](CO)OCP(=O)(O)O)c(=O)n1 [CDV, 1-((3-hydroxy-2-phosphonylmethoxy)propyl)cytosine]	–	–	SPR binding to D4 (in words) [15]: near-baseline signals; ΔTm ([6]; 25 µM): −0.37 ± 0.14; ° C.; ΔTm ([6]; 50 µM): −0.27 ± 0.37 °C; thermal shift (in words) [6]: no thermal shifts; effect on D4 protein levels after Pronase proteolysis (in words) [9]: did not affect the protein levels of D4
O=C(NCCc1ccccn1)Nc1snnc1C(=O)NCc1ccc(F)cc1 [Compound 184, 1-(4-(4-Fluorobenzylcarbamoyl)-1,2,3-thiadiazol-5-yl)-3-(2-(pyridin-2-yl)ethyl)urea]	22.8	60	–
O=C(NCc1ccc(Cl)cc1)c1ccsc1NC(=O)N1CCN(c2ccccn2)CC1 [Compound 111, 4-Pyridin-2-yl-piperazine-1-carboxylic acid [3-(4-chloro-benzyl carbamoyl)-thiophen-2-yl]-amide]	7	63.3	solubility sufficient to detect % of the applied amount [13]: ≤ 90%
O=C(NCc1ccc(Cl)cc1)c1nnsc1NC(=O)C1CCN(c2ccccn2)CC1 [Compound 167, N-(4-(4-Chlorobenzylcarbamoyl)-1,2,3-thiadiazol-5-yl)-1-(pyridin-2-yl)piperidine-4-carboxamide]	17.8	98.6	–
O=C(NCc1ccc(Cl)cc1)c1nnsc1NC(=O)N1CCN(c2ccccc2F)CC1 [Compound 168, 4-(2-Fluoro-phenyl)-piperazine-1-carboxylic acid [4-(4-chloro-benzylcarbamoyl)-[1,2,3]thiadiazol-5-yl]-amide]	11.9	26.3	–
O=C(NCc1ccc(Cl)cc1)c1nnsc1NC(=O)N1CCN(c2ccccn2)CC1 [Compound 83, N-(4-chlorobenzyl)-5-(4-(pyridin-2-yl)piperazine-1-carboxamido)-1,2,3-thiadiazole-4-carboxamide]	7.7	31.4	EC50 [10]: 7.3 µM
O=C(NCc1ccc(F)cc1)c1ccsc1NC(=O)N1CCN(c2ccccn2)CC1 [Compound 181, N-(3-(4-Fluorobenzylcarbamoyl)thiophen-2-yl)-4-(pyridin-2-yl)piperazine-1-carboxamide]	16	135	–
O=C(NCc1ccc(F)c(F)c1)c1ccsc1NC(=O)N1CCN(c2ccccn2)CC1 [Compound 159, N-(3-(3,4-Difluorobenzylcarbamoyl)thiophen-2-yl)-4-(pyridin-2-yl)piperazine-1-carboxamide]	12.8	118	–
O=C(NCCc1ccccn1)Nc1snnc1C(=O)NCc1ccc(Cl)cc1 [Compound 185, 1-(4-(4-Chlorobenzylcarbamoyl)-1,2,3-thiadiazol-5-yl)-3-(2-(pyridin-2-yl)ethyl)urea]	9.6	64.7	–
CCC(C(=O)Nc1scnc1C(=O)NCc1ccc(Cl)cc1)c1ccccc1 (centres unmarked) [Compound 163, 5-(2-Phenylbutanamido)-N-(4-chlorobenzyl)thiazole-4-carboxamide]	12.1	> 100	–
O=C(NCc1ccc(Cl)nc1)c1ccsc1NC(=O)N1CCN(c2ccccn2)CC1 [Compound 170, N-(3-((6-Chloropyridin-3-yl)methylcarbamoyl)thiophen-2-yl)-4-(pyridin-2-yl)piperazine-1-carboxamide]	14.9	> 200	–
CCC(C(=O)Nc1snnc1-c1ccc(C(F)(F)F)cc1)c1ccccc1 (centres unmarked) [Compound 109, 2-Phenyl-N-[4-(4-trifluoromethyl-phenyl)-[1,2,3]thiadiazol-5-yl]-butyramide]	0.8	68.6	–
CN(Cc1ccccc1)C(=O)c1ccsc1NC(=O)N1CCN(c2ccccn2)CC1 [Compound 173, N-(3-(N-Benzyl-N-methylcarbamoyl)thiophen-2-yl)-4-(pyridin-2-yl)piperazine-1-carboxamide]	11.9	> 200	–
O=C(NN1C(=O)[C@@H]2[C@@H]3C=C[C@@H]([C@H]4C[C@@H]34)[C@@H]2C1=O)c1ccc(C(F)(F)F)cc1 [ST-246]	–	–	SPR binding to D4 (in words) [15]: near-baseline signals; ΔTm ([6]; 25 µM): −0.37 ± 0.08; ° C.; ΔTm ([6]; 50 µM): −0.26 ± 0.10 °C; thermal shift (in words) [6]: no thermal shifts; effect on D4 protein levels after Pronase proteolysis (in words) [9]: did not affect the protein levels of D4
CCC(C(=O)Nc1sc(C(N)=O)c(C)c1C(=O)OC)c1ccccc1 (single isomer, unassigned) [Compound 29, Methyl 2-(2-phenylbutanamido)-5-carbamoyl-4-methylthiophene-3-carboxylate]	19.7	13.4	EC50 [10]: 28 µM
COc1ccccc1CN(C)C(=O)c1ccsc1NC(=O)N1CCN(c2ccccn2)CC1 [Compound 172, N-(3-(N-(2-Methoxybenzyl)-N-methylcarbamoyl)thiophen-2-yl)-4-(pyridin-2-yl)piperazine-1-carboxamide]	22.6	117	–
O=C(NCCN1CCOCC1)Nc1snnc1C(=O)NCc1ccc(F)cc1 [Compound 182, 1-(4-(4-Fluorobenzylcarbamoyl)-1,2,3-thiadiazol-5-yl)-3-(2-morpholinoethyl)urea]	12.4	> 100	–
